Experimental data taken from PMC4280904 (Journal of Veterinary Pharmacology and Therapeutics, 2014).
Marks after values point to notes of the source that are not given here.

Assay: Single dose and repeated
Assay type: in vivo, beagle dogs
Conditions: 30 mg/kg tablets p.o.; for AUC(0-inf): AUCinf; for Vd/F: Vz/f
[1] = both, beagle, dog, plasma, po, 30 mg/kg, Fasted
[2] = both, beagle, dog, plasma, po, 30 mg/kg, Fed
[3] = both, beagle, dog, plasma, po, 30 mg/kg, Day 0, fed
[4] = both, beagle, dog, plasma, po, 30 mg/kg, Day 5, fed
[5] = female, beagle, dog, plasma, po, 30 mg/kg, Females
[6] = male, beagle, dog, plasma, po, 30 mg/kg, Males
[7] = male, beagle, dog, plasma, po, 30 mg/kg, Males, fed

O=C1N=C(N2CCOCC2)CN1c1ccc(Cl)cc1 [Imepitoin, 1-(4-chlorophenyl)-4-morpholino-imidazolin-2-one]
maximal plasma concentrations (beagle dogs): 14.9 to 17.2 µg/mL
reduction of total AUC by co-administration with food (crossover fed vs fasted): 30%
AUCinf greater for fasted dogs (fasted vs fed): 30%
Tmax (Day 5 (after 4 days BID)): 1.75 ^* h
Terminal T½ (Fasted): 1.47 h
Terminal T½ (Fed): 1.95 ^* h
AUC(0-inf) [1]: 90300 ng·h/mL
AUC(0-inf) [2]: 69200 ng·h/mL
CL/F [3]: 5.42 mL/min/kg
CL/F [4]: 8.92 mL/min/kg
CL/F [1]: 5.33 mL/min/kg
CL/F [2]: 6.95 mL/min/kg
Cmax [3]: 15000 ng/mL
Cmax [4]: 14800 ng/mL
Cmax [1]: 17200 ng/mL
Cmax [2]: 14900 ng/mL
half-life (both, beagle, dog, plasma, po, 30 mg/kg, Terminal T½, Fed): 120 min
Tmax (both, beagle, dog, plasma, po, 30 mg/kg, Tmax, Day 0, fed): 2.6 h
Tmax (both, beagle, dog, plasma, po, 30 mg/kg, Tmax, Day 5, fed): 1.44 h
Tmax (both, beagle, dog, plasma, po, 30 mg/kg, Tmax, Fasted): 2.17 h
Tmax (both, beagle, dog, plasma, po, 30 mg/kg, Tmax, Fed): 2.02 h
Vd/F [3]: 0.892 L/kg
Vd/F [4]: 1.43 L/kg
Vd/F [1]: 0.663 L/kg
Vd/F [2]: 1.13 L/kg
CL/F [5]: 5.83 mL/min/kg
Cmax [5]: 18100 ng/mL
Tmax (female, beagle, dog, plasma, po, 30 mg/kg, Tmax, Females): 1.89 h
Vd/F [5]: 0.833 L/kg
AUC(0-inf) [6]: 75500 ng·h/mL
CL/F [6]: 6.33 mL/min/kg
CL/F [7]: 7.33 mL/min/kg
Cmax [6]: 14200 ng/mL
Cmax [7]: 12500 ng/mL
Tmax (male, beagle, dog, plasma, po, 30 mg/kg, Tmax, Males): 2.3 h
Tmax (male, beagle, dog, plasma, po, 30 mg/kg, Tmax, Males, fed): 2.44 h
Vd/F [6]: 0.899 L/kg
Vd/F [7]: 1.19 L/kg
